According to patent US6645726B1, “Canine growth hormone secretagogue receptor” (Merck & Co., Inc., priority 1998, dated 2003):

Tests used:
[1] = target: T1, native canine pituitary GHSR (Canis lupus familiaris, UniProt A5HKU8); test: [35S]-MK-677 competition binding, native canine pituitary GHSR; details: comparison value
T1 construct: native canine pituitary GHSR; from tissue; host or cells: canine pituitary

cloned canine GHSR = target: T2, cloned canine GHSR (Canis lupus familiaris, UniProt A5HKU8); test: [35S]-MK-677 competition binding, cloned canine GHSR membranes; details: competition with 35S-MK-677, crude membranes of transfected COS-7 or HEK-293 cells, 20° C., 1 hr
T2 construct: full-length open reading frame placed in the mammalian expression vector pcDNA-3; expressed in transfected cells; host or cells: COS-7 or HEK-293 (crude membranes)
Method: Expression of the canine -GHSR was monitored using a [^35S]-MK-677 binding assay conducted on cells transfected with a canine GHSR expression plasmid (full-length open reading frame placed in the mammalian expression vector pcDNA-3). Mammalian cells (COS-7, HEK-293) were transfected with GHSR expression plasmids using Lipofectamine (GIBCO-BRL; Hawley-Nelson, 1993, Focus 15:73). Transfections were performed in 60 mm dishes on 80% confluent cells (approximately 4×10^5cells) with 8 μg of Lipofectamine and 32 μg of GHSR plasmid DNA.
Binding of ^35S-MK-677 to crude membranes prepared from COS-7 or HEK-293 cells transfected with GHSR expression plasmids was conducted. Crude cell membranes from COS-7 transfectants were prepared on ice, 48 hrs post-transfection. Each 60 mm dish was washed twice with 3 ml of PBS, once with 1 ml homogenization buffer (50 mM Tris-HCl (pH 7.4), 5 mM MgCl2, 2.5 mM EDTA, 30 μg/ml bacitracin). 0.5 ml of homogenization buffer was added to each dish, cells were removed by scraping and then homogenized using a POLYTRON device (Brinkmann, Syosset, N.Y.; 3 bursts of 10 seconds at setting 4). […] After application of the membrane suspension to the filter, the filters were washed 3 times with 3 ml each of ice cold 50 mM Tris-HCl (pH 7.4), 10 mM MgCl2, 2.5 mM-EDTA, and 0.015% Triton X-100, and the bound radioactivity on the filters was quantitated by scintillation counting.

T2 sequence (A5HKU8 1-349): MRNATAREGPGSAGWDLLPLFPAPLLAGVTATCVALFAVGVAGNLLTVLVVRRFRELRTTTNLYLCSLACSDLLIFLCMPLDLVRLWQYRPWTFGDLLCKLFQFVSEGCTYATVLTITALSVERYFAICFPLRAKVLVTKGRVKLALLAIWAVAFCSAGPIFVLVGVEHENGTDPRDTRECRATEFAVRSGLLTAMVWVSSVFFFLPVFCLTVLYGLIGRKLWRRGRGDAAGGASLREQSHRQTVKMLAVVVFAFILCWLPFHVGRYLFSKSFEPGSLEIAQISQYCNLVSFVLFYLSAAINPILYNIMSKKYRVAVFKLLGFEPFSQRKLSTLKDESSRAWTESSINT
T1 sequence (A5HKU8 1-349): as above

IC50 [1]: 1 nM | IC50 (cloned canine GHSR): 2.2 nM
Structure (SMILES): CC(C)(N)C(=O)N[C@H](COCc1ccccc1)C(=O)N1CCC2(CC1)CN(S(C)(=O)=O)c1ccccc12 [MK-677]
